Columns and labels:
GR [1] = target: T1, GR (Homo sapiens, UniProt P04150); experiment: AP-1-Luc repression reporter assay in AD293 cells; format: cell-based; settings: AP-1 reporter, PMA 0.6 ng ml^-1
T1 construct: expressed in transfected cells; host or cells: AD293
T1 sequence (P04150 1-777): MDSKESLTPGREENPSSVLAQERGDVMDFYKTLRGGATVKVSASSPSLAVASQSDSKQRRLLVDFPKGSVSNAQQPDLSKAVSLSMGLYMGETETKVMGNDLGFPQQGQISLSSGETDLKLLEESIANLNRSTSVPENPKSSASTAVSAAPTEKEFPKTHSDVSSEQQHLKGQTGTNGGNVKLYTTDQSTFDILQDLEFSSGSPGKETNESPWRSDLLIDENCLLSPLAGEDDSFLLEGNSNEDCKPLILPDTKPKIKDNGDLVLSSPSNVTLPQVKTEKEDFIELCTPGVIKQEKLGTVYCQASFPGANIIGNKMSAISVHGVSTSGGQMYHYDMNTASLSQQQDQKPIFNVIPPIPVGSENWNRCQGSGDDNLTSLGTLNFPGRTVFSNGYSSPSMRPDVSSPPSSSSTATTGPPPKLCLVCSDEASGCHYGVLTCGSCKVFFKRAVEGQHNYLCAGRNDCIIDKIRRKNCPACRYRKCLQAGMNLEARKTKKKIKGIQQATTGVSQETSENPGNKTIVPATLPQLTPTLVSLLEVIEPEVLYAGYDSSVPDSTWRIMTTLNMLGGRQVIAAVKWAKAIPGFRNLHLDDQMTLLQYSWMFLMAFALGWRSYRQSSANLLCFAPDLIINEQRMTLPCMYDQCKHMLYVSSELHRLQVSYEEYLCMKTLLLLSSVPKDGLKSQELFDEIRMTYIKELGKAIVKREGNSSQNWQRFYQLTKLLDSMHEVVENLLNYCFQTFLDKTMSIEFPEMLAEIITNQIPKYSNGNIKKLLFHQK
Experimental: (§1) Similar to previous reports, for induction 100 ng pHHLuc (MMTV-Luc) plasmid, 0.1 ng pRShGR together with 5 ng phRGtkRenilla were transfected by X-tremeGENE 9 (Roche) into AD293 cells per well in 24-well plate. For transrepression, 10 ng AP-1-Luc or 10ng pNF-κB-luc, 100 ng pRShGR and 5 ng phRGtkRenilla were transfected into AD293 cells per well. We used the same transfection protocol for the MR and PR assays, except of the use of 0.1 ng MR or PR plasmid to substitute GR. One day after transfection, for induction, cells were directly treated by steroids for 16 h; for repression, cells were treated with either PMA at 0.6 ng ml^–1 (for AP-1 reporter) or TNFα at 2 ng ml^–1 (for NF-κB reporter), together with various steroids. Cells were collected by addition of 1× Passive Lysis Buffer (Promega, Madison, WI, USA), and luciferase activity was assayed by the Dual-Glo Luciferase system (Promega). Data were plotted as firefly luciferase activity normalized to Renilla luciferase activity in Relative Luciferase Units.

GR [2] = target: T1, GR; experiment: NF-κB-Luc repression reporter assay in AD293 cells; format: cell-based; settings: TNFα 2 ng ml^-1
Experimental: as §1
Error bars indicate SD, n=3.

GR [3] = target: T1, GR; experiment: In vitro H3-Dex competition GR ligand-binding assay; settings: H3-DEX 15 nM, GR cytosol
Excerpt: The in vitro GR binding assay is similar to the one described previously. […] Data were plotted as a standard competition curve by GraphPad Prism 5.

[4] = Insulin-tolerance test and plasma insulin level; settings: 7 days
Experimental: DBA/1 mice (Taconic) were weighted just before the experiment. After 4 h fasting, mice were i.p. injected with 0.75 U kg^–1 of insulin (Huamlin R). Blood samples were taken from the tail at time 0 (before insulin injection), 15, 30, 45, 60, 90 and 120 min after injection. Plasma glucose levels were measured using an AlphaTrak glucose meter. All data were plotted as percent of glucose level at time 0. Endogenous insulin levels were measured using the Ultra Sensitive Mouse Insulin ELISA kit (Crystal Chem, Downers Groove, IL, USA).

SMILES: CON(C)C(=O)C1(OC(=O)c2ccco2)C(C)CC2C3CC(F)C4=Cc5c(cnn5-c5ccccc5)CC4(C)C3(F)C(O)CC21C (centres unmarked) [VSGC12]
- IC50 (GR [1]): 0.02 nM
- IC50 (GR [2]): 0.08 nM
- IC50 (GR [3]): 6.1 nM
- insulin resistance in insulin-tolerance test ([4]; 0.0625 mg kg^-1 daily): no longer induced insulin resistance
- insulin resistance in insulin-tolerance test ([4]; 0.25 mg kg^-1 daily): still caused insulin resistance, the resistance was much less severe than for FF

Reference: article PMC4822341 (Cell Discovery, 2015)
